The values below come from article PMC5412315, “Wedelolactone Acts as Proteasome Inhibitor in Breast Cancer Cells” (International Journal of Molecular Sciences, 2017).

Usually IC50 stands for the concentration needed to halve the response being measured.

Data set [1] concerns p21, p27, p53, Bax and multiubiquitinated proteins in MDA-MB-231, MDA-MB-468 and T47D cells. Put plainly: Immunoblotting of polyubiquitinated and short-lived proteins. Format: cell-based, human. The settings on record: 10 h, all three cell lines. Here is the method:
(§1) Figure 3 Multiubiquitinated and high turnover proteins accumulate in wedelolactone-treated breast cancer cells. MDA-MB-231, MDA-MB-468, and T47D cells were treated with various concentrations of wedelolactone or solvent for 10 h. (A) Protein extracts were subsequently analyzed by SDS-PAGE and immunoblotting using p21-, p27-, p53-, Bax-, and ubiquitin-specific antibodies. Treatment with MG132 served as a positive control; (B) Transcripts of CDKN1A, CDKN1B, TP53 and BAX genes were quantified using qPCR.
5 × 10^5 cells were seeded in 6-well plates. The next day, the cells were exposed to various concentrations of wedelolactone, DMSO, or 10 μM MG132 for 10 h. Cells were harvested and lysed as described previously. Cell lysates were subjected to SDS–PAGE and immunoblotted. Sample loading was normalized according to protein concentration determined by DC protein assay (Biorad). Blots were probed with anti-ubiquitin (3933S; Cell Signaling Technology, Inc., Beverly, MA, USA), anti-p21, anti-p27 (sc-817 and sc-528; Santa Cruz Biotechnology Inc., Santa Cruz, CA, USA), anti-p53, anti-Bax or anti-Myc-Tag (9282, 5023 and 2276S; Cell Signaling Technology), anti-α-tubulin antibodies (T9026; Sigma-Aldrich), and secondary antibodies conjugated with peroxidase (Sigma-Aldrich). […]
Background: In western blotting, separated proteins are transferred to a membrane and probed.

In data set [2] the test system is purified 26S and 20S proteasome complexes. Put plainly: Proteasome activity in vitro (statements on purified 26S and 20S together). Format: biochemical. Here is the method: (§2) Figure 2 Wedelolactone inhibits chymotrypsin-like, trypsin-like, and caspase-like activities of purified 26S and 20S proteasome complexes in vitro. Wedelolactone (w) was added at various concentrations to reaction mixture containing either (A) 26S proteasome purified from MDA-MB-231 cells or (B) commercially available 20S proteasome, and fluorogenic substrate (Suc-LLVY-AMC for testing chymotrypsin-like, Z-LLE-AMC for caspase-like, and Boc-LRR-AMC for trypsin-like activities). Fluorescence was measured after 1 h incubation. MG132 was used as a positive control. The data represent the mean values from three independent experiments. Error bars indicate the SD. * indicates a significant (p < 0.05) difference in proteolytic activities between reaction mixtures containing wedelolactone/MG132 and DMSO.
(§3) Chymotrypsin-like, trypsin-like and caspase-like proteasome activities were determined using Proteasome Activity Fluorometric Assay Kit II (J4120, UBPBio) according to manufacturer’s instructions. […] Fluorescence was measured by TECAN infinite 200 plate reader (TECAN, Mannedorf, Switzerland) for 1 h at 37 °C.

Data set [3] deals with T1, proteasome in MDA-MB-231 cells (Homo sapiens, UniProt P28074).
T1 construct: endogenous in cells; host or cells: MDA-MB-231, MDA-MB-468 or T47D cells (treated 10 h, then lysed)
T1 sequence (P28074 60-263): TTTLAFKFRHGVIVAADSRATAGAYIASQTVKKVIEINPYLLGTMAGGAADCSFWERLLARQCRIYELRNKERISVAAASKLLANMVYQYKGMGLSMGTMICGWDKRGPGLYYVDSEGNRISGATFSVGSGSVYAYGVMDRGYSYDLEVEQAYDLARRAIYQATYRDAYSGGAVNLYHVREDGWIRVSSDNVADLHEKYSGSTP
T1 sequence (P28072 1-239 partner): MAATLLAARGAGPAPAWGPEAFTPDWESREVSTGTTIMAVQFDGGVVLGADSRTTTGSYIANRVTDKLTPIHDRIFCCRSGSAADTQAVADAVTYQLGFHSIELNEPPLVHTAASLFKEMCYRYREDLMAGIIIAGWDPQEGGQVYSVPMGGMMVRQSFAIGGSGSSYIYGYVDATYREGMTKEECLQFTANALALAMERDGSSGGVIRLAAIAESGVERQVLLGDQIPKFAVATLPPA
T1 sequence (Q99436 44-277 partner): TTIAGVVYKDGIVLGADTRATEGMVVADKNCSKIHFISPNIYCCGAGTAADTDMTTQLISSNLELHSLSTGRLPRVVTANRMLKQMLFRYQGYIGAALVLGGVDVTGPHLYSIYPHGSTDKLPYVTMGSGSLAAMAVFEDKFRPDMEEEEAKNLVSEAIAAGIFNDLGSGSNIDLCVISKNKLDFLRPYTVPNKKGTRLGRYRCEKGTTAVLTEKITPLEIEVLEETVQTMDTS
In words: Proteasome activity in cell extracts of treated MDA-MB-231 cells (fluorogenic substrates). Format: cell-based. Conditions: MDA-MB-231 cells treated 10 h, cell extract, Suc-LLVY-AMC; read-out: IC50, chymotrypsin-like activity of proteasome. Here is the method: (§4) Figure 1 Wedelolactone inhibits chymotrypsin-like, trypsin-like and caspase-like activities in breast cancer cells. MDA-MB-231 (A); MDA-MB-468 (B); and T47D (C) cells were treated with various concentrations of wedelolactone (w) for 10 h. Proteasome activities were evaluated in cell extracts using the activity-specific fluorogenic substrates (Suc-LLVY-AMC for testing chymotrypsin-like, Z-LLE-AMC for caspase-like, and Boc-LRR-AMC for trypsin-like activities). Treatment with MG132 served as a positive control. The data represent the mean values from three independent experiments. Error bars indicate the SD. * indicates a significant (p < 0.05) difference between wedelolactone-/MG132- and DMSO-treated cells.
(§5) MDA-MB-231, MDA-MB-468 and T47D (6 × 10^5) cells were seeded in 5 mL of culture media, exposed to various concentrations of wedelolactone, DMSO or 10 μM MG132 for 10 h. Cells were harvested, resuspended in cell lysis buffer (40 mM Tris, pH 7.2, 50 mM NaCl, 2 mM β-mercaptoethanol, 2 mM ATP, 5 mM MgCl, 10% Glycerol) and briefly sonicated using an Ultrasonic Processor UP100H (Hielscher, Ringwood, NJ, USA). Cell lysates were cleared by centrifugation and protein concentration in supernatant was determined using DC protein assay (Biorad, Hercules, CA, USA). […] Fluorescence was measured by TECAN infinite 200 plate reader (TECAN) for 1 h at 37 °C.

In data set [4] the test system is CDKN1A, CDKN1B, TP53 and BAX genes in MDA-MB-231, MDA-MB-468 and T47D cells. In words: qPCR of CDKN1A, CDKN1B, TP53 and BAX transcripts. Conditions: 10 h, all three cell lines. It is filed as cell-based, human. Here is the method: as §1
1 × 10^6 cells were seeded in 5 mL dishes. Next day, the cells were exposed to various concentrations of wedelolactone or DMSO for 10 h. Cells were harvested and total RNA was isolated using GenElute Mammalian Total RNA Miniprep kit (Sigma-Aldrich). For cDNA synthesis, 1 μg of total RNA was reverse-transcribed using the QuantiTect Reverse Transcription kit (Qiagen, Hilden, Germany) according to the manufacturer’s instructions in a final reaction volume of 20 μL. Expression of CDKN1A, CDKN1B, TP53 and BAX genes was determined using the target-specific primers (Table S1) and KAPA SYBR FAST qPCR MASTER MIX (KK460, Kapa Biosystems, Cambridge, MA, USA) on LightCycler 480 II (Roche, Basel, Switzerland). Expression of the reference GAPDH gene (probe 4326317E, ThermoFisher Scientific, Waltham, MA, USA) was used for data normalization.
For orientation: Quantitative PCR measures a nucleic acid by following its amplification.

The target of the next data set is T2, proteasome in T47D cells (Homo sapiens, UniProt P28074).
T2 construct: endogenous in cells; host or cells: MDA-MB-231, MDA-MB-468 or T47D cells (treated 10 h, then lysed)
T2 sequence (P28074 60-263): T1 sequence (P28074 60-263)
T2 sequence (P28072 1-239 partner): T1 sequence (P28072 1-239 partner)
T2 sequence (Q99436 44-277 partner): T1 sequence (Q99436 44-277 partner)
Put plainly: Proteasome activity in cell extracts of treated T47D cells (fluorogenic substrates). The settings on record: T47D cells treated 10 h, cell extract, Suc-LLVY-AMC; read-out: IC50, chymotrypsin-like activity of proteasome. Format: cell-based. Here is the method: as §4, §5

Data set [5] concerns the target T3, proteasome in breast cancer cells (MDA-MB-231, MDA-MB-468, T47D) (Homo sapiens, UniProt P28072+P28074+Q99436).
T3 construct: endogenous in cells; host or cells: MDA-MB-231, MDA-MB-468 and T47D cells; in A12 transiently transfected with hCTR1-N-Myc, with or without copper loading, while the proteasome itself stays endogenous
T3 sequence (P28074 60-263): T1 sequence (P28074 60-263)
T3 sequence (P28072 1-239): T1 sequence (P28072 1-239 partner)
T3 sequence (Q99436 44-277): T1 sequence (Q99436 44-277 partner)
In words: Proteasome activity in breast cancer cell lines (statements on all three lines). It is filed as cell-based. The settings on record: 10 h, cell extracts. Here is the method:
as §4, §5

Data set [6] has as its target T4, 26S proteasome purified from MDA-MB-231 cells (Homo sapiens, UniProt P28074).
T4 construct: Human 26S proteasome was purified from 8 × 10^6 of MDA-MB-231 cells; endogenous in cells; host or cells: MDA-MB-231 cells; purified with The Rapid 26S Proteasome Purification Kit (J4310, UBPBio)
In words: Proteasome activity in vitro, purified 26S proteasome. Format: biochemical. The settings on record: Suc-LLVY-AMC, 1 h, read-out: IC50, chymotrypsin-like activity. Here is the method:
as §2
Human 26S proteasome was purified from 8 × 10^6 of MDA-MB-231 cells using The Rapid 26S Proteasome Purification Kit (J4310, UBPBio) according to manufacturer’s instructions.
as §3

The subject of another data set is breast cancer cell lines. Set-up: method as in PMID 21315506, PMID 22733624. The settings on record: all three breast cancer cell lines, at concentrations corresponding to the IC50 values; cited from earlier work.
Data set [7] deals with MDA-MB-231, MDA-MB-468 and T47D cells over-expressing CTR1. Put plainly: Cell mortality by PI exclusion assay (flow-cytometry) in copper-loaded vs control cells. It is filed as cell-based, human. The settings on record: 48 h, CTR1 overexpression with/without 25 μM copper sulfate pretreatment 24 h. How it is done: (§6) Figure 4 Copper loading enhances cytotoxicity and ROS production in wedelolactone-treated breast cancer cells. MDA-MB-231, MDA-MB-468, and T47D cells were transiently transfected with pCNDA3.1-hCTR1-N-Myc (CTR1) or control pCDNA3.1 plasmids (cmv), pretreated with copper sulfate (Cu) for 24 h and subsequently treated with wedelolactone (w) or solvent (DMSO) in fresh media. (A) Cells were harvested and expression of exogenous CTR1 protein was confirmed by SDS-PAGE followed by immunoblotting with the Myc-Tag antibody; (B) Relative copper concentration in cell lysates was analyzed by SALD ICP MS. Data for copper are presented as an integrated ^63Cu/^60Ni signal ratio. (C) Cell mortality and (D) ROS production were evaluated after PI/DHE staining using flow-cytometry. The data represent the mean values from three independent experiments. Error bars indicate the SD. * indicates a significant (p < 0.05) difference.
3 × 10^5 cells were seeded in 6-well plates. After 24 h, transient transfection was performed, using 3 μL of Lipofectamine LTX reagent (Invitrogen) with a mixture containing 1.5 μg of pCNDA3.1-hCTR1-N-Myc or control pCDNA3.1 plasmid and 1.5 μL of PLUS reagent (Invitrogen). […] Cytotoxicity of wedelolactone was analyzed 48 h later by PI staining (1 μg/mL) using flow-cytometry as described previously.

Data set [8] has the same test system. Put plainly: ROS production by DHE staining (flow-cytometry) in copper-loaded vs control cells. It is filed as cell-based, human. Conditions: 10 h, CTR1 overexpression with/without 25 μM copper sulfate pretreatment 24 h. Here is the method: as §6
3 × 10^5 cells were seeded in 6-well plates. After 24 h, transient transfection was performed as described in chapter 4.6. […] Reactive oxygen species (ROS) were measured using flow-cytometry (BD FACSVerse, BD Biosciences, Franklin Lakes, NJ, USA) at an excitation wavelength of 485 nm and an emission wavelength of 538 nm. Data were analyzed using BD FACSuite software (BD Biosciences).

The target of data set [9] is T5, proteasome in MDA-MB-468 cells (Homo sapiens, UniProt P28074).
T5 construct: endogenous in cells; host or cells: MDA-MB-231, MDA-MB-468 or T47D cells (treated 10 h, then lysed)
T5 sequence (P28074 60-263): T1 sequence (P28074 60-263)
T5 sequence (P28072 1-239 partner): T1 sequence (P28072 1-239 partner)
T5 sequence (Q99436 44-277 partner): T1 sequence (Q99436 44-277 partner)
In words: Proteasome activity in cell extracts of treated MDA-MB-468 cells (fluorogenic substrates). Format: cell-based. The settings on record: MDA-MB-468 cells treated 10 h, cell extract, Suc-LLVY-AMC; read-out: IC50, chymotrypsin-like activity of proteasome. How it is done: as §4, §5

The target of a further data set is T6, bovine 20S proteasome (Bos taurus, UniProt Q32KL2).
T6 construct: purchased UBPBio A1400
In words: Proteasome activity in vitro, commercially available 20S proteasome. It is filed as biochemical. Conditions: Suc-LLVY-AMC, 1 h, read-out: IC50, chymotrypsin-like activity. Here is the method: as §2, §3

Consider `COc1cc(O)c2c(c1)oc(=O)c1c3cc(O)c(O)cc3oc21` [Wedelolactone], for which the “Level of p21, p27, p53, Bax and multiubiquitinated proteins” value in data set [1] was “dose-dependent accumulation”. In data set [2] (purified 26S and 20S proteasome, 1 h), the “Inhibition of chymotrypsin-like, trypsin-like and caspase-like activities in vitro” value is reported as “inhibited all three proteasomal activities in vitro in a dose-dependent manner”. Besides, the IC50 in [2] (summary over purified 26S and 20S proteasome, read-out: IC50 values for chymotrypsin-like inhibitory activity, in vitro) is < 10 µM; in data set [3] it was 27.8 µM; on proteasome in T47D cells, 19.5 µM; in [6] it was 9.97 µM; in data set [9], 12.8 µM; on bovine 20S proteasome, 6.13 µM. Moreover, the “Expression of CDKN1A, CDKN1B, TP53 and BAX genes” value in data set [4] is “did not affect expression of any of these genes”. The “Inhibition of chymotrypsin-like, trypsin-like and caspase-like activities of proteasome in cells” value in data set [5] is on record as “inhibited all three proteolytic activities of proteasome”. In addition, the “Growth arrest and apoptosis” value in the data set on breast cancer cell lines was “induced growth arrest and apoptosis”. In addition, the “Cytotoxicity (cell mortality), effect of copper loading” value in data set [7] was “enhanced by copper loading”. In addition, the “ROS production, effect of copper loading” value in [8] is listed as “Copper-loaded cells produced more ROS”.
